The values below come from patent EP0123546A2, “Compositions for treating inflammation and eliciting analgesia” (Norwich Eaton Pharmaceuticals, Inc., priority 1983, dated 1984).

Structures are written as SMILES. Like-named read-outs stand apart in the source and are kept apart here.

Usually ED50 stands for the midpoint of the dose-response relation.

Experiment [1] deals with carrageenin-induced rat paw edema. Put plainly: carrageenin-induced rat paw edema method (Winter et al.). The class given is in vivo, male Wistar rats. To be noted: for protection: 300 mg/kg p.o. From the text: The compound 5-(4-chlorophenyl)-2-furancarboxylic acid (I) [drawing 1] and its preparation have been described in the chemical literature (Mathur et al. , J. Chem. Soc., 1961 (Part 2), 2576-2578). It has now been discovered that this compound exerts impressive anti-inflammatory activity using the well recognized carrageenin- induced rat paw edema method described by Winter et al. in Proc. Soc. […] Positive results secured under this method are correlative to successful performance in other species where the need for anti-inflammatory medication is present.
In accordance with the aforementioned -method, fasted male Wistar rats, 100-125 g., were dosed in groups of 3 with […] p.o. of (1) in 0.5% (wlv) methylcellulose. A control group of 20 rats (groups of 5 rats each combined from 4 separate experiments) received methylcellulose only at the same dose rate of 10 ml/kg. One hour later 0.05 ml of 1% (w/v) carrageenin was injected into the plantar region of the right hindpaw of each rat, using a 27-gauge 1/2-inch needle. Before oral dosing and at 4 and 6 hours post-carrageenin, hindpaw volumes were determined by immersing the feet in a liquid mercury bath to the level of the anatomical hairline. Displacement of the mercury was determined as a pressure difference, measured through a Statham venous pressure transducer coupled to a Grass Model 7 polygraph. The polygraph was calibrated such that a 1 ml displacement produced a 1 mm pen deflection. Two consecutive measurements were taken in all cases and the mean value used in calculations. Calculation of the ED50 value was done as described below for the mouse writhing data. Mean percent protection increased at 4 hours from 0 to 3 mg/kg p.o. to 51.5 at 100 mg/kg p.o. and at 6 hours from 16.6 at 3 mg/kg to 39.9 at 100 mg/kg in a dose-dependent manner. The high dose of 300 mg/kg p.o. gave 34.9 and 23.2% protection at 4 and 6 hours, respectively.
A general note: Carrageenan injected into the paw causes an acute inflammation.

Experiment [2] relates to phenylquinone-induced writhing. In words: antagonism of phenylquinone-induced writhing (Hendershot and Forsaith). In kind it is in vivo, male albino mice. To be noted: for Mean percent protection: one hour before phenylquinone i.p.; for ED50: Mus musculus, read-out: dose giving 50% protection (ED50). On the procedure:
Groups of 10 fasted male albino mice, 14-28 g. were dosed by gavage with 18-1,000 mg/kg (I) in 0.5% (w/v) methylcellulose or with methylcellulose solution alone. One hour later each mouse received 10 ml/kg of 0.02% phenylquinone in 5% ethanol intraperitoneally. The characteristic writhing responses were observed and counted from 5 to 15 minutes after phenylquinone administration.
(Writhing tests count abdominal constrictions after an irritant is injected.)

Experiment [3] relates to ultraviolet light-induced cutaneous erythema. Put plainly: ultraviolet light-induced cutaneous erythema test (Winder et al.). The class given is in vivo, guinea pigs. To be noted: Cavia porcellus, po; linear regression of log dose versus percent protection, combined 2, 3 and 4 hour readings. Here is the method:
Guinea pigs weighing 280-715 g were fasted 24 hours and the dorsal-lateral surface was cleared by clipping and chemical depilation. The animals were placed in an opaque rubber glove with three circular, 6 mm punched holes. Exposure for 90 seconds at a distance of 7 cm to a Model 30620 Hanovia ultraviolet lamp with a Type 616A bulb and Type 6540-001 filter produced the erythema. (I) in methylcellulose was administered orally one hour before irradiation to groups of 5 animals at doses from 5 to 153 mg/kg at a rate of 10 mI/kg. Erythema was scored at 2, 3 and 4 hours post-irradiation as 0 (no redness), 0.5 (slight redness) or 1 (full red circle). Percent protection was calculated with reference to a vehicle-dosed control group of 5 animals treated on the same day. ED50 values were estimated by linear regression analysis of the log dose versus percent protection (combined 2, 3 and 4 hour readings) relationship.

The test system is the same in experiment [4]. To be noted: similar evaluation; Goldenberg et al., op cit.; cited from earlier work.
In experiment [5] the test system is carrageenin-induced rat paw edema. To be noted: same test; Goldenberg et al., Arch. Int. Pharmacodyn. Ther., 243:331-350, 1980; cited from earlier work.

In the case of `O=C(O)c1ccc(-c2ccc(Cl)cc2)o1` [(I), 5-(4-chlorophenyl)-2-furancarboxylic acid], the Mean percent protection turned out to be 0% in experiment [1] (3 mg/kg p.o., 4 hours post-carrageenin); 16.6% in experiment [1] (3 mg/kg p.o., 6 hours post-carrageenin); 51.5% in experiment [1] (100 mg/kg p.o., 4 hours post-carrageenin); 39.9% in experiment [1] (100 mg/kg p.o., 6 hours post-carrageenin); 13.1% in experiment [2] (18 mg/kg by gavage); 92.4% in experiment [2] (1,000 mg/kg by gavage). Further, the protection in experiment [1] (4 hours post-carrageenin) was 34.9%; in experiment [1] (6 hours post-carrageenin), 23.2%. The median effective dose (ED50) in experiment [1] (Rattus norvegicus, 4 hours post-carrageenin, oral dose 1 hour before carrageenin) is 84.2 mg/kg; in experiment [2] (linear regression of log oral dose versus percent protection), 213 mg/kg; in experiment [3], 24 mg/kg.
Turning to `CC(=O)Oc1ccccc1C(=O)O` [aspirin], in experiment [4], the ED50 estimate is 49.5 mg/kg p.o. For the same molecule, the ED50 in experiment [2] (po) amounted to 182 mg/kg. Besides, the ED50 value in experiment [5] is listed as 155 mg/kg p.o.
